From PubChem BioAssay (NCI)
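Growth conditions: 96-well plates. Treatment: test compound, 48 hours, 5 concentrations. Analysis: linear interpolation between bracketing concentrations; unreached endpoints set to highest concentration. TGI: concentration producing complete growth inhibition.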

Key:
Experiment in all cases: NCI anticancer screen, dose series, 48 h
EKVX NSCLC = test system: EKVX NSCLC
BT-549 breast = test system: BT-549 breast
HCT-116 colon = test system: HCT-116 colon
SF-295 CNS = test system: SF-295 CNS
MOLT-4 leukemia = test system: MOLT-4 leukemia
DU-145 prostate = test system: DU-145 prostate
TK-10 renal = test system: TK-10 renal
SK-MEL-2 melanoma = test system: SK-MEL-2 melanoma
SNB-19 CNS = test system: SNB-19 CNS
SK-MEL-28 melanoma = test system: SK-MEL-28 melanoma
MCF7 breast = test system: MCF7 breast
U251 CNS = test system: U251 CNS
HS 578T breast = test system: HS 578T breast
K-562 leukemia = test system: K-562 leukemia
KM12 colon = test system: KM12 colon
OVCAR-3 ovarian = test system: OVCAR-3 ovarian
HT29 colon = test system: HT29 colon
HOP-62 NSCLC = test system: HOP-62 NSCLC
SK-OV-3 ovarian = test system: SK-OV-3 ovarian
ACHN renal = test system: ACHN renal
UACC-257 melanoma = test system: UACC-257 melanoma
OVCAR-8 ovarian = test system: OVCAR-8 ovarian
OVCAR-5 ovarian = test system: OVCAR-5 ovarian
SNB-75 CNS = test system: SNB-75 CNS
COLO 205 colon = test system: COLO 205 colon
MDA-N = test system: MDA-N
SN12C renal = test system: SN12C renal
CCRF-CEM leukemia = test system: CCRF-CEM leukemia
786-0 renal = test system: 786-0 renal
CAKI-1 renal = test system: CAKI-1 renal
NCI/ADR-RES ovarian = test system: NCI/ADR-RES ovarian
LOX IMVI melanoma = test system: LOX IMVI melanoma
MALME-3M melanoma = test system: MALME-3M melanoma
NCI-H460 lung = test system: NCI-H460 lung
M14 melanoma = test system: M14 melanoma
UO-31 renal = test system: UO-31 renal
IGROV1 ovarian = test system: IGROV1 ovarian
SF-268 CNS = test system: SF-268 CNS
SK-MEL-5 melanoma = test system: SK-MEL-5 melanoma
RPMI-8226 leukemia = test system: RPMI-8226 leukemia
HCT-15 colon = test system: HCT-15 colon
OVCAR-4 ovarian = test system: OVCAR-4 ovarian
UACC-62 melanoma = test system: UACC-62 melanoma
PC-3 prostate = test system: PC-3 prostate
SR leukemia = test system: SR leukemia
MDA-MB-435 = test system: MDA-MB-435
NCI-H226 lung = test system: NCI-H226 lung
HL-60(TB) leukemia = test system: HL-60(TB) leukemia
SW-620 colon = test system: SW-620 colon
A549 NSCLC = test system: A549 NSCLC
NCI-H522 lung = test system: NCI-H522 lung
NCI-H23 lung = test system: NCI-H23 lung
HOP-92 NSCLC = test system: HOP-92 NSCLC
T-47D breast = test system: T-47D breast
MDA-MB-231 breast = test system: MDA-MB-231 breast
RXF 393 renal = test system: RXF 393 renal
SF-539 CNS = test system: SF-539 CNS
A498 renal = test system: A498 renal

Q: Which TGI (EKVX NSCLC) does the source give for `O=c1c(-c2ccccc2)c(SCCO)n(-c2ccccc2)c(=S)n1-c1ccccc1` here?
A: Its TGI is greater than 100 µM.

Q: And the TGI (BT-549 breast)?
A: The TGI was greater than 100 µM.

Q: What about the TGI (HCT-116 colon) of the same compound?
A: The TGI was greater than 100 µM.

Q: And the TGI (SF-295 CNS)?
A: Its TGI is greater than 100 µM.

Q: And the TGI (MOLT-4 leukemia)?
A: The TGI was greater than 100 µM.

Q: And the TGI (DU-145 prostate)?
A: The TGI was greater than 100 µM.

Q: And the TGI (TK-10 renal)?
A: Its TGI is greater than 100 µM.

Q: What about the TGI (SK-MEL-2 melanoma) of the same compound?
A: Its TGI is greater than 100 µM.

Q: What about the TGI (SNB-19 CNS) of the same compound?
A: Its TGI is greater than 100 µM.

Q: What about the TGI (SK-MEL-28 melanoma) of the same compound?
A: Its TGI is greater than 100 µM.

Q: What about the TGI (MCF7 breast) of the same compound?
A: The TGI was greater than 100 µM.

Q: What about the TGI (U251 CNS) of the same compound?
A: Its TGI is greater than 100 µM.

Q: What about the TGI (HS 578T breast) of the same compound?
A: The TGI was greater than 100 µM.

Q: What about the TGI (K-562 leukemia) of the same compound?
A: The TGI was greater than 100 µM.

Q: What about the TGI (KM12 colon) of the same compound?
A: Its TGI is greater than 100 µM.

Q: What about the TGI (OVCAR-3 ovarian) of the same compound?
A: The TGI was greater than 100 µM.

Q: And the TGI (HT29 colon)?
A: The TGI was greater than 100 µM.

Q: What about the TGI (HOP-62 NSCLC) of the same compound?
A: Its TGI is greater than 100 µM.

Q: What about the TGI (SK-OV-3 ovarian) of the same compound?
A: Its TGI is greater than 100 µM.

Q: What about the TGI (ACHN renal) of the same compound?
A: Its TGI is greater than 100 µM.

Q: What about the TGI (UACC-257 melanoma) of the same compound?
A: Its TGI is greater than 100 µM.

Q: What about the TGI (OVCAR-8 ovarian) of the same compound?
A: Its TGI is greater than 100 µM.

Q: And the TGI (OVCAR-5 ovarian)?
A: The TGI was greater than 100 µM.

Q: And the TGI (SNB-75 CNS)?
A: The TGI was greater than 100 µM.

Q: What about the TGI (COLO 205 colon) of the same compound?
A: The TGI was greater than 100 µM.

Q: What about the TGI (MDA-N) of the same compound?
A: Its TGI is greater than 100 µM.

Q: And the TGI (SN12C renal)?
A: Its TGI is greater than 100 µM.

Q: And the TGI (CCRF-CEM leukemia)?
A: The TGI was greater than 100 µM.

Q: And the TGI (786-0 renal)?
A: Its TGI is greater than 100 µM.

Q: What about the TGI (CAKI-1 renal) of the same compound?
A: The TGI was greater than 100 µM.

Q: What about the TGI (NCI/ADR-RES ovarian) of the same compound?
A: Its TGI is greater than 100 µM.

Q: And the TGI (LOX IMVI melanoma)?
A: The TGI was greater than 100 µM.

Q: And the TGI (MALME-3M melanoma)?
A: Its TGI is greater than 100 µM.

Q: What about the TGI (NCI-H460 lung) of the same compound?
A: Its TGI is greater than 100 µM.

Q: What about the TGI (M14 melanoma) of the same compound?
A: Its TGI is greater than 100 µM.

Q: What about the TGI (UO-31 renal) of the same compound?
A: Its TGI is greater than 100 µM.

Q: And the TGI (IGROV1 ovarian)?
A: The TGI was greater than 100 µM.

Q: What about the TGI (SF-268 CNS) of the same compound?
A: The TGI was greater than 100 µM.

Q: What about the TGI (SK-MEL-5 melanoma) of the same compound?
A: The TGI was greater than 100 µM.

Q: And the TGI (RPMI-8226 leukemia)?
A: Its TGI is greater than 100 µM.

Q: And the TGI (HCT-15 colon)?
A: The TGI was greater than 100 µM.

Q: And the TGI (OVCAR-4 ovarian)?
A: Its TGI is greater than 100 µM.

Q: What about the TGI (UACC-62 melanoma) of the same compound?
A: Its TGI is greater than 100 µM.

Q: And the TGI (PC-3 prostate)?
A: Its TGI is greater than 100 µM.

Q: What about the TGI (SR leukemia) of the same compound?
A: The TGI was greater than 100 µM.

Q: And the TGI (MDA-MB-435)?
A: The TGI was greater than 100 µM.

Q: What about the TGI (NCI-H226 lung) of the same compound?
A: The TGI was greater than 100 µM.

Q: What about the TGI (HL-60(TB) leukemia) of the same compound?
A: Its TGI is greater than 100 µM.

Q: What about the TGI (SW-620 colon) of the same compound?
A: Its TGI is greater than 100 µM.

Q: And the TGI (A549 NSCLC)?
A: Its TGI is greater than 100 µM.

Q: And the TGI (NCI-H522 lung)?
A: The TGI was greater than 100 µM.

Q: What about the TGI (NCI-H23 lung) of the same compound?
A: The TGI was greater than 100 µM.

Q: Which results are given for `Cc1nn(-c2ccccc2)c(C)c1/C=N/N=C1\S/C(=C\c2ccc(Cl)cc2)C(=O)N1c1ccccc1`?
A: TGI (EKVX NSCLC): > 100 µM; TGI (BT-549 breast): > 100 µM; TGI (HCT-116 colon): > 100 µM; TGI (SF-295 CNS): > 100 µM; TGI (MOLT-4 leukemia): 27.2 µM; TGI (DU-145 prostate): > 100 µM; TGI (TK-10 renal): > 100 µM; TGI (SK-MEL-2 melanoma): > 100 µM; TGI (SNB-19 CNS): > 100 µM; TGI (SK-MEL-28 melanoma): > 100 µM; TGI (MCF7 breast): > 100 µM; TGI (U251 CNS): > 100 µM; TGI (HS 578T breast): 60.9 µM; TGI (K-562 leukemia): > 100 µM; TGI (HOP-92 NSCLC): > 100 µM; TGI (KM12 colon): > 100 µM; TGI (OVCAR-3 ovarian): > 100 µM; TGI (T-47D breast): > 100 µM; TGI (HT29 colon): > 100 µM; TGI (HOP-62 NSCLC): > 100 µM; TGI (SK-OV-3 ovarian): > 100 µM; TGI (ACHN renal): > 100 µM; TGI (UACC-257 melanoma): > 100 µM; TGI (OVCAR-8 ovarian): > 100 µM; TGI (OVCAR-5 ovarian): > 100 µM; TGI (SNB-75 CNS): 71.8 µM; TGI (COLO 205 colon): > 100 µM; TGI (MDA-N): > 100 µM; TGI (SN12C renal): > 100 µM; TGI (CCRF-CEM leukemia): > 100 µM; TGI (786-0 renal): 7.89 µM; TGI (CAKI-1 renal): > 100 µM; TGI (NCI/ADR-RES ovarian): > 100 µM; TGI (LOX IMVI melanoma): > 100 µM; TGI (MALME-3M melanoma): > 100 µM; TGI (NCI-H460 lung): > 100 µM; TGI (M14 melanoma): > 100 µM; TGI (UO-31 renal): > 100 µM; TGI (IGROV1 ovarian): > 100 µM; TGI (SF-268 CNS): > 100 µM; TGI (SK-MEL-5 melanoma): > 100 µM; TGI (MDA-MB-231 breast): > 100 µM; TGI (RPMI-8226 leukemia): > 100 µM; TGI (HCT-15 colon): > 100 µM; TGI (OVCAR-4 ovarian): 4.74 µM; TGI (UACC-62 melanoma): > 100 µM; TGI (RXF 393 renal): 84.3 µM; TGI (PC-3 prostate): > 100 µM; TGI (MDA-MB-435): > 100 µM; TGI (SF-539 CNS): > 100 µM; TGI (NCI-H226 lung): > 100 µM; TGI (A498 renal): > 100 µM; TGI (HL-60(TB) leukemia): 24.4 µM; TGI (SW-620 colon): > 100 µM; TGI (A549 NSCLC): > 100 µM; TGI (NCI-H23 lung): > 100 µM
